Measured values taken from article PMC6689897, “Drugging an undruggable pocket on KRAS” (Proceedings of the National Academy of Sciences of the …, 2019).

Experiments:
[1] = target: SOScat-catalyzed nucleotide exchange on RAS (Homo sapiens, UniProt P01116); test: SOS1 nucleotide exchange assay (BODIPY-GDP)
GCP-KRAS^G12D,C118S = GCP-KRAS^G12D,C118S (Homo sapiens, UniProt P01116, C118S/G12D); test: NMR KD, T35 construct (G12D, C118S), GCP-bound; assay type: binding; conditions: versus 17
Procedure: 91 were incubated with 500 µM fragment in a 2.5 mm NMR tube at 298K and 1%
93 dimension. Processing and analysis were accomplished with Topspin 3.0 (Bruker
94 BioSpin). Binders were identified by manual comparison of spectra in the presence of a
95 fragment and the respective reference spectrum.
98 Measurement of dissociation constants KD for the compounds synthesized.
99 was initially the only method that could provide K Ds for the weakly binding molecules to
101 3mm NMR tubes (170µL filling) at a protein concentration of 70-100µM.

GCP-KRASG12D = GCP-KRASG12D (Homo sapiens, UniProt P01116, G12D); test: KD(HSQC) NMR; assay type: binding
Procedure: (§1) 80 difference spectrum. Mixtures of four fragments (each at 250 µM) were incubated in 25
(§2) 82 a mixture of GCP-KRASG12D and GDP-KRASG12V (each 4 µM). Binders were identified
(§3) 83 by comparing pre-recorded reference spectra with the STD difference spectrum.
(§4) 84 Deconvolution and confirmation of primary FBS hits obtained from STD-NMR and
(§5) 85 MST was performed using 2D 1H/15N TROSY NMR experiments(2) collected on a
(§6) 86 Bruker Avance III 600 MHz spectrometer equipped with a 5 mm z-gradient TCI cryo-
(§7) 87 probe. Samples were prepared directly before data acquisition using a Tecan Freedom
(§8) 88 Evo pipetting system and delivered by a Bruker Sample Rail to the magnet. Each sample
(§9) 89 contained either 50 µM 15N labeled GDP-KRASG12D or GCP-KRASG12D in 25 mM Tris-
(§10) 90 d11, 100 mM NaCl, 2 mM MgCl2, 0.5 mM TCEP pH 7.4 and 8% (v/v) D2O. Proteins […]
(§11) 92 d6DMSO. Spectra were recorded with 32 transients and 64 data points in the indirect […]
(§12) 100 support compound optimization. 1H/15N SoFast HMQC experiments(3) were recorded in […]
(§13) 102 recorded on a Avance III 700MHz spectrometer equipped with a cryogenically cooled […]
(§14) 107 DMSO. KDs were calculated from the differences in chemical shift induced by t he small […]
(§15) 109 dimension were calculated according to the following equation: […]
(§16) 120 (MicroCalTM, LLC Northampton, MA). Protein solutions were measured in 20 mM […]
(§17) 125 were analyzed with the MicroCal PEAQ-ITC analysis software package. […]

GDP-KRASG12D = GDP-KRASG12D (Homo sapiens, UniProt P01116, G12D); test: KD(HSQC) NMR; assay type: binding
Procedure: as §1, §2, §3, §4, §5, §6, §7, §8, §9, §10, §11, §12, §13, §14, §15, §16, §17

GTP-KRASG12D::SOS1 = GTP-KRASG12D::SOS1 (Homo sapiens, UniProt P01116, G12D); test: KRASG12D::SOS1 GTP TR-FRET assay

| SMILES | SOScat-mediated exchange ([1]; highest concentrations) | SOS1-catalyzed nucleotide exchange ([1]; several concentrations) | more potent than nonphenolic matched molecular pair 17 (GCP-KRAS^G12D,C118S) | Kd (GCP-KRASG12D) | Kd (GDP-KRASG12D) | EC50 (GTP-KRASG12D::SOS1) | IC50 (GTP-KRASG12D::SOS1) |
| --- | --- | --- | --- | --- | --- | --- | --- |
| Cn1cnc(Cn2ccc3ccc(CNCc4[nH]c5ccccc5c4[C@H]4NC(=O)c5ccc(O)cc54)cc32)c1 [Compound 1] | full inhibition | inhibits the rate of nucleotide exchange in a dose-dependent manner | – | – | – | – | – |
| CN(C)Cc1[nH]c2ccccc2c1[C@H]1NC(=O)c2ccc(O)cc21 [Compound 18] | – | – | 6 fold | 17 µM | 16 µM | 33 µM | 33 µM |
